Results on 19 compounds are retold here after US11498904B2, “Substituted biaryl compounds as indoleamine 2,3-dioxygenase (IDO) inhibitors” (MERCK SHARP & DOHME CORP., priority 2017, dated 2022).

The experiment deals with IDO1 (Homo sapiens, UniProt P14902). As to the kind of experiment: IDO1 Human Whole Blood Assay. Type of experiment: cell-based. The conditions noted are these: LPS and IFNγ 100 ng/mL, 18 h, kynurenine by LC/MS/MS, read-out: Human Whole Blood Potency, IC50. Here is the method: IDO1 Human Whole Blood Assay
IDO1, sequence (P14902 whole entry): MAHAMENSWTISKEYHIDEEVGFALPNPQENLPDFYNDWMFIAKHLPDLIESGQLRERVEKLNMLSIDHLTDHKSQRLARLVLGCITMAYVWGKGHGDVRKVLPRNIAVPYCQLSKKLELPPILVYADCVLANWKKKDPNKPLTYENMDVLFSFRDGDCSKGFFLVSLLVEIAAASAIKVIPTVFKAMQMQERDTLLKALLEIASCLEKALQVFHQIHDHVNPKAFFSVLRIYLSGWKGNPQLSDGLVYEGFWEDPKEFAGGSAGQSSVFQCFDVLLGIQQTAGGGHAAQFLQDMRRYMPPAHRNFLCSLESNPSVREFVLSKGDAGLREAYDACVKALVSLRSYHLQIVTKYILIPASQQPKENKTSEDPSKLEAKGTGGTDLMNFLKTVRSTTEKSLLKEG
Compounds to be tested were serially diluted in ten 3-fold steps in DMSO starting from 10 mM. […] LPS and IFNγ was prepared in RPMI to a 10× of final conc. (1000 ng/mL), final concentration is 100 ng/mL.
240 μL of blood was transferred to each of the wells of a v-bottom 96 well plate. 30 μL of compound was transferred from intermediate dilution plate, and incubated for 15 min. 30 μL from stimulants was then transferred to blood and mixed thoroughly. Plate was covered with breathable membrane and incubated at 37° C. for overnight (18 h).
On day 2 isotope labeled standard of kynurenine and tryptophan was made in water at 10× concentration and 30 μL was added to the blood at 3 μM final concentration. The assay plates were centrifuged at 300×G for 10 min with no brake to separate plasma from red blood cells. 60 μL of plasma samples was removed without disturbing red blood cells. Plasma was diluted with RPMI in 1:1 ratio and proteins were precipitated out with two volume of
Acetonitrile. The plates were centrifuged at 4000×G for 60 min. 20 μL of supernatant was carefully transferred to a 384 well plate contain 40 μL of 0.1% formic acid in water and analyzed by LC/MS/MS.
LC/MS/MS analyses were performed using Thermo Fisher's LX4-TSQ Quantum Ultra system. This system consists of four Agilent binary high-performance liquid chromatography (HPLC) pumps and a TSQ Quantum Ultra triple quadrupole MS/MS instrument. For each sample, 5 μL were injected onto an Atlantis T3 column (2.1 mm×150 mm, 3 μm particle size) from Waters. The mobile phase gradient pumped at 0.8 mL/min was used to elute the analytes from the column at 25° C. […] Mobile phase A consisted of 0.1% formic acid in water. Mobile phase B consisted of 0.1% of formic acid in acetonitrile. Data was acquired in positive mode using a HESI interface. The operational parameters for the TSQ Quantum Ultra instrument were a spray voltage of 4000 V, capillary temperature of 380° C., vaporizer temperature 400° C., shealth gas 60 arbitrary units, Aux gas 20 arbitrary units, tube lens 85 and collision gas 1.2 mTorr. SRM chromatograms of kynurenine (Q1: 209.2>Q3:94.0) and internal standard (Q1: 215.3>Q3:98.2) were collected for 90 sec. The peak area was integrated by Xcalibur Quan software. The ratios between the kynurenine generated in the reaction and 2D6-Kynurenine spiked-in internal standard were used to generate percentage inhibition and IC50 values. Compounds were titrated and IC50's were calculated by 4 parameter sigmoidal curve fitting formula.
The biological activity data of selective compounds using the IDO1 human whole blood assay described above are summarized in the table below.

Molecules are shown by their SMILES. Counter-ions that a name gives are not always drawn.

For orientation: IC50 means the concentration that inhibits the measured activity by half. Take `CC1CC1(NC(=O)c1ccc(F)cc1)c1ccc(-c2cnc(C(F)(F)F)cc2C(C)(C)O)nc1` (single isomer, unassigned) [Example 58]: the half-inhibitory concentration (IC50) came to 284 nM.

Turning to `O=C(NC1(c2ccc(-c3cnc(C(F)(F)F)cc3CO)cc2)CCC1)c1ccc(F)cc1` [Example 53], the IC50 is 1000 nM.

Consider `Cc1cc(C2CC2)ncc1-c1ccc(C2(NC(=O)c3ccc(C#N)cc3)CCC2)cc1F` [Example 7, 4-Cyano-N-(1-(4-(6-cyclopropyl-4-methylpyridin-3-yl)-3-fluorophenyl)cyclobutyl)benzamide], for which the half-maximal inhibitory concentration (IC50) is 398 nM.

Consider `N#Cc1ccc(C(=O)NC2(c3ccc(-c4ccc(C5CC5)nc4CO)cc3)CCC2)cc1` [Example 25, 4-cyano-N-(1-(4-(6-cyclopropyl-2-(hydroxymethyl)pyridin-3-yl)phenyl)cyclobutyl)benzamide], for which the 50% inhibitory concentration (IC50) amounted to 587 nM.

Regarding `CC(C)(O)c1cc(C(F)(F)F)ncc1-c1ccc(C2(NC(=O)c3ccc(F)cc3)CCC2)cc1` [Example 52, 4-fluoro-N-(1-(4-(4-(2-hydroxypropan-2-yl)-6-(trifluoromethyl)pyridin-3-yl)phenyl)cyclobutyl)benzamide], the half-maximal inhibitory concentration (IC50) was determined as 152 nM.

For the compound `Cc1cc(C2CC2)ncc1-c1ccc(C2(NC(=O)c3ccc(C#N)cc3)CCC2)cc1` [Example 12, 4-cyano-N-(1-(4-(6-cyclopropyl-4-methylpyridin-3-yl)phenyl)cyclobutyl)benzamide], the concentration for half-maximal inhibition (IC50) turned out to be 246 nM.

Turning to `CC1CC1(NC(=O)c1ccc(F)cc1)c1ccc(-c2cnc(C(F)(F)F)cc2C(C)(C)O)nc1` (single isomer, unassigned) [Example 60], the concentration for half-maximal inhibition (IC50) is 210 nM.

Turning to `CC1CC1(NC(=O)c1ccc(F)cc1)c1ccc(-c2cnc(C(F)(F)F)cc2C(C)(C)O)nc1` (single isomer, unassigned) [Example 59], the half-maximal inhibitory concentration (IC50) amounted to 171 nM.

Turning to `CC(C)(O)c1cc(OC2CC2)ncc1-c1ccc(C2(NC(=O)c3ccc(F)cc3)CC2)cc1` [Example 47, N-(1-(4-(6-cyclopropoxy-4-(2-hydroxypropan-2-yl)pyridin-3-yl)phenyl)cyclopropyl)-4-fluorobenzamide], the half-maximal inhibitory concentration (IC50) came out at 127 nM.

Turning to `C[C@@H](O)c1cc(C(F)(F)F)ncc1-c1ccc(C2(NC(=O)c3ccc(F)cc3)CC2)cc1` [Example 51, (R)-4-fluoro-N-(1-(4-(4-(1-hydroxyethyl)-6-(trifluoromethyl)pyridin-3-yl)phenyl)cyclopropyl)benzamide, 2,2,2-trifluoroacetate salt], the IC50 came to 233 nM.

For the compound `CC1CC1(NC(=O)c1ccc(F)cc1)c1ccc(-c2cnc(C(F)(F)F)cc2C(C)(C)O)nc1` (single isomer, unassigned) [Example 56, 4-fluoro-N-(1-(4′-(2-hydroxypropan-2-yl)-6′-(trifluoromethyl)-[2,3′-bipyridin]-5-yl)-2-methylcyclopropyl)benzamide], the concentration for half-maximal inhibition (IC50) was determined as 361 nM.

For the compound `Cc1cc(C2CC2)ncc1-c1ccc(C2(NC(=O)c3ccc(C#N)cc3)CCC2)nc1` [Example 42, 4-Cyano-N-(1-(6′-cyclopropyl-4′-methyl-[3,3′-bipyridin]-6-yl)cyclobutyl)benzamide], the IC50 was 392 nM.

For `N#Cc1ccc(C(=O)NC2(c3ccc(-c4cnc(C(F)(F)F)cc4CO)cc3)CCC2)cc1` [Example 35, 4-cyano-N-(1-(4-(4-(hydroxymethyl)-6-(trifluoromethyl)pyridin-3-yl)phenyl)cyclobutyl)benzamide], the 50% inhibitory concentration (IC50) was determined as 1070 nM.

In the case of `C[C@H](O)c1cc(C(F)(F)F)ncc1-c1ccc(C2(NC(=O)c3ccc(F)cc3)CC2)cc1` [Example 50, (S)-4-fluoro-N-(1-(4-(4-(1-hydroxyethyl)-6-(trifluoromethyl)pyridin-3-yl)phenyl)cyclopropyl)benzamide], the IC50 stood at 186 nM.

For the compound `O=C(NC1(c2ccc(-c3cnc(C(F)(F)F)cc3CO)cc2)CC1)c1ccc(Cl)cc1` [Example 46, 4-chloro-N-(1-(4-(4-(hydroxymethyl)-6-(trifluoromethyl)pyridin-3-yl)phenyl)cyclopropyl)benzamide], the half-maximal inhibitory concentration (IC50) was found to be 703 nM.

Take `O=C(NC1(c2ccc(-c3cnc(OC4CC4)cc3CO)cc2)CC1)c1ccc(F)cc1` [Example 48, N-(1-(4-(6-cyclopropoxy-4-(hydroxymethyl)pyridin-3-yl)phenyl)cyclopropyl)-4-fluorobenzamide]: the IC50 turned out to be 922 nM.

For the compound `COc1cc(C)c(-c2ccc(C3(NC(=O)c4ccc(C#N)cc4)CCC3)cc2)c(C)n1` [Example 36, 4-cyano-N-(1-(4-(6-methoxy-2,4-dimethylpyridin-3-yl)phenyl)cyclobutyl)benzamide], the IC50 stood at 308 nM.

On to `CC(C)Oc1cc(CO)c(-c2ccc(C3(NC(=O)c4ccc(F)cc4)CC3)cc2)cn1` [Example 49, 4-fluoro-N-(1-(4-(4-(hydroxymethyl)-6-isopropoxypyridin-3-yl)phenyl)cyclopropyl)benzamide], for which the IC50 was 579 nM.

As to `CC(C)(O)c1cc(OC2CC2)ncc1-c1ccc(C2(NC(=O)c3ccc(F)cc3)CCC2)cc1` [Example 54, N-(1-(4-(6-cyclopropoxy-4-(2-hydroxypropan-2-yl)pyridin-3-yl)phenyl)cyclobutyl)-4-fluorobenzamide], the half-inhibitory concentration (IC50) amounted to 336 nM.
